Values quoted from earlier work, collected in patent US20140106010A1, “Blend of Green and Black Extracts for the Promotion of Health Benefits” (Kemin Industries, Inc., priority 2012, published 2014).

Legend:
ERK1 and ERK2 = details: TRAMP mice, 0.06% EGCG in drinking water, dorsolateral and ventral prostate
[1] = tested on: prostate tissue of C57BL/6 mice; details: 2 weeks decaffeinated black tea extract at 50 mg/g diet

greater relative absorption into the prostate compared to EGCG [1] [%] | Compound | decreased phosphorylation of ERK1 and ERK2 (ERK1 and ERK2)
– | epigallocatechin-3-gallate [EGCG] | about 50%
70 | O=c1c(O)cc([C@H]2Oc3cc(O)cc(O)c3C[C@H]2O)cc2c([C@H]3Oc4cc(O)cc(O)c4C[C@H]3O)cc(O)c(O)c12 [theaflavin] | –
